In US9108944B2, “Androgen receptor modulators and uses thereof” (ARAGON PHARMACEUTICALS, INC., priority 2010, dated 2015):

How the values were obtained:
AR-VP16 [1] = target: T1, AR-VP16 (Homo sapiens, UniProt P10275); assay: AR-VP16 DNA Binding Assay, antagonist mode (HepG2 cells, 0.1 nM R1881); format: cell-based
T1 sequence (P10275 560-920 limits assumed): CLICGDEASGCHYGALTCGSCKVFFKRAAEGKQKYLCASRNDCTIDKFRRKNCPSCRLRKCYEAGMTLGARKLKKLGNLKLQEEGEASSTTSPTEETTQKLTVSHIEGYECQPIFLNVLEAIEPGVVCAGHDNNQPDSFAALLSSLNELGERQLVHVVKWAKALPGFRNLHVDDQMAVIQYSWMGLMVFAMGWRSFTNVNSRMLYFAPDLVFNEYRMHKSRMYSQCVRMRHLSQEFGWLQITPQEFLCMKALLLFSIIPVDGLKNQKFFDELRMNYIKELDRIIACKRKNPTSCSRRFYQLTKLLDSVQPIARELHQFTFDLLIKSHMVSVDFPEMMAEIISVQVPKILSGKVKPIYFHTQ
Method in brief: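 Transfected HepG2 cells expressing AR-VP16 received serially diluted compound in charcoal-stripped-serum RPMI the day after transfection, with 0.1 nM R1881 (final) added only for antagonist testing. After 48 h, cells were lysed for measurement.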

AR-VP16 [2] = target: T1, AR-VP16; assay: AR-VP16 DNA Binding Assay, agonist mode (HepG2 cells); format: cell-based; conditions: Emax >20x DMSO control = agonist

SMILES	IC50 (AR-VP16 [1]) [nM]	ARVP16 DNA Binding Assay (Agonist mode): Agonist? (AR-VP16 [2])
CCOC(=O)CN1CCC(Oc2ccc(N3C(=S)N(c4cnc(C#N)c(C(F)(F)F)c4)C(=O)C34CCC4)cc2)CC1 [Compound 221, Ethyl 2-(4-(4-(7-(6-cyano-5-(trifluoromethyl)pyridin-3-yl)-8-oxo-6-thioxo-5,7-diazaspiro[3.4]octan-5-yl)phenoxy)piperidin-1-yl)acetate]	> 1000	No (Agonist defined as a compound whose Emax in the ARVP16 DNA Binding Assay (Agonist mode) is >20x DMSO control)
N#Cc1ncc(N2C(=O)C3(CCC3)N(c3ccc(OC4CCN(C(N)=O)CC4)cc3)C2=S)cc1C(F)(F)F [Compound 222, 4-(4-(7-(6-Cyano-5-(trifluoromethyl)pyridin-3-yl)-8-oxo-6-thioxo-5,7-diazaspiro[3.4]octan-5-yl)phenoxy)piperidine-1-carboxamide]	< 1000	Yes (Agonist defined as a compound whose Emax in the ARVP16 DNA Binding Assay (Agonist mode) is >20x DMSO control)
Cc1cc(N2C(=O)C3(CCC3)N(c3ccc(OCCO)cc3)C2=S)cnc1C#N [Compound 223, 5-(5-(4-(2-Hydroxyethoxy)phenyl)-8-oxo-6-thioxo-5,7-diazaspiro[3.4]octan-7-yl)-3-methylpicolinonitrile]	< 1000	No (Agonist defined as a compound whose Emax in the ARVP16 DNA Binding Assay (Agonist mode) is >20x DMSO control)
N#Cc1ncc(N2C(=O)C3(CCC3)N(c3ccc(C(=O)O)c(F)c3)C2=S)cc1C(F)(F)F [Compound 224, 4-(7-(6-Cyano-5-(trifluoromethyl)pyridin-3-yl)-8-oxo-6-thioxo-5,7-diazaspiro[3.4]octan-5-yl)-2-fluorobenzoic acid]	> 1000	No (Agonist defined as a compound whose Emax in the ARVP16 DNA Binding Assay (Agonist mode) is >20x DMSO control)
Cc1cc(N2C(=O)C3(CCC3)N(c3ccc(C(=O)O)c(F)c3)C2=S)cnc1C#N [Compound 225, 4-(7-(6-Cyano-5-methylpyridin-3-yl)-8-oxo-6-thioxo-5,7-diazaspiro[3.4]octan-5-yl)-2-fluorobenzoic acid]	< 1000	No (Agonist defined as a compound whose Emax in the ARVP16 DNA Binding Assay (Agonist mode) is >20x DMSO control)
N#Cc1ncc(N2C(=O)C3(CCC3)N(c3ccc(F)c(C(=O)O)c3)C2=S)cc1C(F)(F)F [Compound 226, 5-(7-(6-Cyano-5-(trifluoromethyl)pyridin-3-yl)-8-oxo-6-thioxo-5,7-diazaspiro[3.4]octan-5-yl)-2-fluorobenzoic acid]	> 1000	No (Agonist defined as a compound whose Emax in the ARVP16 DNA Binding Assay (Agonist mode) is >20x DMSO control)
N#Cc1ncc(N2C(=O)C3(CCC3)N(c3ccc(CCCC(=O)O)cc3)C2=S)cc1C(F)(F)F [Compound 227, 4-(4-(7-(6-cyano-5-(trifluoromethyl)pyridin-3-yl)-8-oxo-6-thioxo-5,7-diazaspiro[3.4]octan-5-yl)phenyl)butanoic acid]	> 1000	No (Agonist defined as a compound whose Emax in the ARVP16 DNA Binding Assay (Agonist mode) is >20x DMSO control)
N#Cc1ncc(N2C(=O)C3(CCC3)N(c3ccc(OCC(=O)O)c(F)c3)C2=S)cc1C(F)(F)F [Compound 228, 2-(4-(7-(6-Cyano-5-(trifluoromethyl)pyridin-3-yl)-8-oxo-6-thioxo-5,7-diazaspiro[3.4]octan-5-yl)-2-fluorophenoxy)acetic acid]	> 1000	No (Agonist defined as a compound whose Emax in the ARVP16 DNA Binding Assay (Agonist mode) is >20x DMSO control)
NC(=O)c1ncc(N2C(=O)C3(CCC3)N(c3ccc(F)c(C(=O)O)c3)C2=S)cc1C(F)(F)F [Compound 229, 5-(7-(6-Carbamoyl-5-(trifluoromethyl)pyridin-3-yl)-8-oxo-6-thioxo-5,7-diazaspiro[3.4]octan-5-yl)-2-fluorobenzoic acid]	< 1000	No (Agonist defined as a compound whose Emax in the ARVP16 DNA Binding Assay (Agonist mode) is >20x DMSO control)
N#Cc1ncc(N2C(=O)C3(CCC3)N(c3ccc(C(N)=O)c(F)c3)C2=S)cc1C(F)(F)F [Compound 231, 4-(7-(6-Cyano-5-(trifluoromethyl)pyridin-3-yl)-8-oxo-6-thioxo-5,7-diazaspiro[3.4]octan-5-yl)-2-fluorobenzamide]	< 1000	No (Agonist defined as a compound whose Emax in the ARVP16 DNA Binding Assay (Agonist mode) is >20x DMSO control)
Cc1cc(N2C(=O)C3(CCC3)N(c3ccc(C(N)=O)c(F)c3)C2=S)cnc1C#N [Compound 232, 4-(7-(6-Cyano-5-methylpyridin-3-yl)-8-oxo-6-thioxo-5,7-diazaspiro[3.4]octan-5-yl)-2-fluorobenzamide]	< 1000	No (Agonist defined as a compound whose Emax in the ARVP16 DNA Binding Assay (Agonist mode) is >20x DMSO control)
Cc1cc(N2C(=S)N(c3cnc(C#N)c(C)c3)C(=O)C23CCC3)ccc1C(N)=O [Compound 233, 4-(7-(6-Cyano-5-methylpyridin-3-yl)-8-oxo-6-thioxo-5,7-diazaspiro[3.4]octan-5-yl)-2-methylbenzamide]	> 1000	No (Agonist defined as a compound whose Emax in the ARVP16 DNA Binding Assay (Agonist mode) is >20x DMSO control)
N#Cc1ncc(N2C(=O)C3(CCC3)N(c3ccc(C(=O)NCCN4CCCC4)c(F)c3)C2=S)cc1C(F)(F)F [Compound 234, 4-(7-(6-Cyano-5-(trifluoromethyl)pyridin-3-yl)-8-oxo-6-thioxo-5,7-diazaspiro[3.4]octan-5-yl)-2-fluoro-N-(2-(pyrrolidin-1-yl)ethyl)benzamide]	> 1000	No (Agonist defined as a compound whose Emax in the ARVP16 DNA Binding Assay (Agonist mode) is >20x DMSO control)
N#Cc1ncc(N2C(=O)C3(CCC3)N(c3ccc(C(=O)NCCc4ccccn4)c(F)c3)C2=S)cc1C(F)(F)F [Compound 236, 4-(7-(6-Cyano-5-(trifluoromethyl)pyridin-3-yl)-8-oxo-6-thioxo-5,7-diazaspiro[3.4]octan-5-yl)-2-fluoro-N-(2-(pyridin-2-yl)ethyl)benzamide]	< 1000	No (Agonist defined as a compound whose Emax in the ARVP16 DNA Binding Assay (Agonist mode) is >20x DMSO control)
N#Cc1ncc(N2C(=O)C3(CCC3)N(c3ccc(C(=O)NCCCN4CCCC4)c(F)c3)C2=S)cc1C(F)(F)F [Compound 237, 4-(7-(6-Cyano-5-(trifluoromethyl)pyridin-3-yl)-8-oxo-6-thioxo-5,7-diazaspiro[3.4]octan-5-yl)-2-fluoro-N-(3-(pyrrolidin-1-yl)propyl)benzamide]	< 1000	No (Agonist defined as a compound whose Emax in the ARVP16 DNA Binding Assay (Agonist mode) is >20x DMSO control)
N#Cc1ncc(N2C(=O)C3(CCC3)N(c3ccc(C(=O)NCCc4ccncc4)c(F)c3)C2=S)cc1C(F)(F)F [Compound 238, 4-(7-(6-Cyano-5-(trifluoromethyl)pyridin-3-yl)-8-oxo-6-thioxo-5,7-diazaspiro[3.4]octan-5-yl)-2-fluoro-N-(2-(pyridin-4-yl)ethyl)benzamide]	> 1000	No (Agonist defined as a compound whose Emax in the ARVP16 DNA Binding Assay (Agonist mode) is >20x DMSO control)
N#Cc1ncc(N2C(=O)C3(CCC3)N(c3ccc(F)c(C(=O)NCCc4ccccn4)c3)C2=S)cc1C(F)(F)F [Compound 239, 5-(7-(6-Cyano-5-(trifluoromethyl)pyridin-3-yl)-8-oxo-6-thioxo-5,7-diazaspiro[3.4]octan-5-yl)-2-fluoro-N-(2-(pyridin-2-yl)ethyl)benzamide]	> 1000	No (Agonist defined as a compound whose Emax in the ARVP16 DNA Binding Assay (Agonist mode) is >20x DMSO control)
N#Cc1ncc(N2C(=O)C3(CCC3)N(c3ccc(F)c(C(=O)NCCc4cccnc4)c3)C2=S)cc1C(F)(F)F [Compound 240, 5-(7-(6-Cyano-5-(trifluoromethyl)pyridin-3-yl)-8-oxo-6-thioxo-5,7-diazaspiro[3.4]octan-5-yl)-2-fluoro-N-(2-(pyridin-3-yl)ethyl)benzamide]	> 1000	No (Agonist defined as a compound whose Emax in the ARVP16 DNA Binding Assay (Agonist mode) is >20x DMSO control)
N#Cc1ncc(N2C(=O)C3(CCC3)N(c3ccc(F)c(C(=O)NCCc4ccncc4)c3)C2=S)cc1C(F)(F)F [Compound 241, 5-(7-(6-Cyano-5-(trifluoromethyl)pyridin-3-yl)-8-oxo-6-thioxo-5,7-diazaspiro[3.4]octan-5-yl)-2-fluoro-N-(2-(pyridin-4-yl)ethyl)benzamide]	> 1000	No (Agonist defined as a compound whose Emax in the ARVP16 DNA Binding Assay (Agonist mode) is >20x DMSO control)
N#Cc1ncc(N2C(=O)C3(CCC3)N(c3ccc(C(=O)NCCN4CCOCC4)c(F)c3)C2=S)cc1C(F)(F)F [Compound 242, 4-(7-(6-Cyano-5-(trifluoromethyl)pyridin-3-yl)-8-oxo-6-thioxo-5,7-diazaspiro[3.4]octan-5-yl)-2-fluoro-N-(2-morpholinoethyl)benzamide]	< 1000	No (Agonist defined as a compound whose Emax in the ARVP16 DNA Binding Assay (Agonist mode) is >20x DMSO control)
